# Measured values from ChEMBL document CHEMBL4184262, “Iodine mediated pyrazolo-quinoline derivatives as potent anti-proliferative agents” (Bioorg Med Chem Lett, 2018).
# Key:
# Assay type in all cases: functional, cell-based
# A549 = assay: Antiproliferative activity against human A549 cells incubated for 24 hrs by MTT assay; conditions: A549, 24 h
# HeLa = assay: Antiproliferative activity against human HeLa cells incubated for 24 hrs by MTT assay
# SK-N-SH = assay: Antiproliferative activity against human SK-N-SH cells incubated for 24 hrs by MTT assay
# HepG2 = assay: Antiproliferative activity against human HepG2 cells incubated for 24 hrs by MTT assay; conditions: HepG2, 24 h
# MCF7 = assay: Antiproliferative activity against human MCF7 cells incubated for 24 hrs by MTT assay; conditions: MCF7, 24 h
Structure (SMILES),IC50 (A549),IC50 (HeLa),IC50 (SK-N-SH),IC50 (HepG2),IC50 (MCF7)
Clc1ccc(-c2nc3ccccc3c3c2c(-c2ccccc2)nn3-c2ccccc2)cc1,8.09 µM,5.62 µM,6.65 µM,10.8 µM,11.1 µM
Clc1ccc(-c2nc3ccccc3c3c2c(-c2ccc(Br)cc2)nn3-c2ccccc2)cc1,8.79 µM,9.52 µM,5.47 µM,20.7 µM,38 µM
Clc1ccc(-c2nc3ccccc3c3c2c(-c2ccccc2)nn3-c2ccccc2)c(Cl)c1,8.17 µM,5.24 µM,11.5 µM,83.9 µM,77.8 µM
O=[N+]([O-])c1cccc(-c2nc3ccccc3c3c2c(-c2ccc(Br)cc2)nn3-c2ccccc2)c1,15.6 µM,6.49 µM,3.87 µM,19.3 µM,20.3 µM
Cc1ccc(-c2nc3ccccc3c3c2c(-c2ccccc2)nn3-c2ccccc2)cc1,56.8 µM,7.38 µM,5.02 µM,32.7 µM,24.2 µM
Brc1ccc(-c2nn(-c3ccccc3)c3c2c(-c2ccco2)nc2ccccc23)cc1,8.81 µM,4.89 µM,3.83 µM,30.4 µM,14 µM
c1ccc(-c2nc3ccccc3c3c2c(-c2ccccc2)nn3-c2ccccc2)cc1,16.5 µM,24.6 µM,5.24 µM,18.6 µM,32.6 µM
Clc1ccc(-c2nc3ccccc3c3c2c(-c2ccc(Br)cc2)nn3-c2ccccc2)c(Cl)c1,5.96 µM,81.2 µM,7.13 µM,180 µM,6.01 µM
Brc1ccc(-c2nn(-c3ccccc3)c3c2c(-c2cccs2)nc2ccccc23)cc1,9.34 µM,23.4 µM,5.24 µM,35 µM,42.4 µM
COc1cccc2c1C(=O)c1c(O)c3c(c(O)c1C2=O)C[C@@](O)(C(=O)CO)C[C@@H]3O[C@H]1C[C@H](N)[C@H](O)[C@H](C)O1 [DOXORUBICIN],0.223 µM,,2.42 µM,6.11 µM,

# Further lines, results first:
IC50 (A549),IC50 (HeLa),IC50 (SK-N-SH),IC50 (HepG2),IC50 (MCF7),Structure (SMILES)
41.1 µM,12 µM,3.76 µM,42.8 µM,10.4 µM,COc1ccc(-c2nc3ccccc3c3c2c(-c2ccc(Br)cc2)nn3-c2ccccc2)c(OC)c1
4.92 µM,14.3 µM,5.99 µM,14.6 µM,12.3 µM,Brc1ccc(-c2nn(-c3ccccc3)c3c2c(-c2ccccc2)nc2ccccc23)cc1
8.45 µM,5.29 µM,5.54 µM,30.3 µM,123 µM,COc1ccccc1-c1nc2ccccc2c2c1c(-c1ccc(Br)cc1)nn2-c1ccccc1
8.1 µM,11.8 µM,5.54 µM,24.4 µM,18.4 µM,Brc1ccc(-c2nn(-c3ccccc3)c3c2c(-c2cccc4ccccc24)nc2ccccc23)cc1
2.43 µM,8.3 µM,4.54 µM,26 µM,19.6 µM,Cc1ccc(-c2nc3ccccc3c3c2c(-c2ccc(Br)cc2)nn3-c2ccccc2)cc1
25.8 µM,7.81 µM,5.39 µM,18.8 µM,15.4 µM,COc1ccccc1-c1nc2ccccc2c2c1c(-c1ccccc1)nn2-c1ccccc1
